Data as given in PMC10303159, “Conjugation of Triterpenic Acids of Ursane and Oleanane Types with Mitochondria-Targeting Cation F16 Synergistically Enhanced Their Cytotoxicity against Tumor Cells” (Membranes, 2023).
Where a name gives a salt, the structure may show the parent alone.

Experiments:
[1] = test system: H1299 cells (human non-small cell lung cancer); assay: MTT cytotoxicity assay, H1299; assay type: cell-based; conditions: mean ± SEM
Excerpt: (§1) All cell lines used in this study (human non-small cell lung cancer—H1299 (Accession Number—CRL-5803), human lung carcinoma—A549 (Accession Number—CCL-185), human breast adenocarcinoma—MCF-7 (Accession Number—HTB-22), human breast ductal carcinoma—BT474 (Accession Number—HTB-20)) were purchased from American Type Culture Collection (ATCC, Manassas, VA, USA). Human primary dermal fibroblasts (HPDF) derived from a patch of skin of healthy donors (n = 3) were obtained from the biobank of the Institute for Regenerative Medicine, Lomonosov Moscow State University, collection ID: MSU_FB (https://human.depo.msu.ru (accessed on 14 September 2021)). Cells were grown in DMEM media supplemented with 10% fetal bovine serum, 100 μg/mL gentamycin, and 2 mM of glutamine at 37 °C in a 5% CO2 atmosphere.
(§2) To carry out the MTT assay, 3500 cells per well were seeded in 96-well plates. A day after the seeding, triterpenoids or their derivatives dissolved in DMSO were added. DMSO was used as a control. At 48 h after cell seeding, 10 μL of 5 mg/mL Thiazolyl Blue (Paneko, Russia) solution was added to each well and cells were kept for 3 h at 37 °C in a CO2 incubator. After removing the thiazol-containing medium, 150 μL of isopropyl alcohol (supplemented with 40 mM HCl and 0.1% NP-40) was added to dissolve the MTT-formazan salt. The absorbance at 570 and 630 nm (reference) was measured using a BioRad iMark microplate reader (BioRad, Hercules, CA, USA). Four biological replicates were used for the experiment. The results were processed with Excel software (version number: 14.0.6023.1000 (32-bit)). IC50 values were calculated by using AAT Bioquest online calculator (https://www.aatbio.com/tools/ic50-calculator, accessed on 15 May 2023) and are represented as the mean ± SEM.

[2] = test system: A549 cells (human lung carcinoma); assay: MTT cytotoxicity assay, A549; assay type: cell-based; conditions: for IC50: MTT assay, 48 h of treatment, mean ± SEM
Excerpt: as §1
as §2, with “A day after the seeding, triterpenoids or their derivatives dissolved in DMSO were added.” left out, “At 48 h after cell seeding, 10 μL of 5 mg/mL Thiazolyl Blue (Paneko, Russia) solution was added to each well and cells were kept for 3 h at 37 °C in a CO2 incubator.” left out

[3] = test system: MCF-7 cells (human breast adenocarcinoma); assay: MTT cytotoxicity assay, MCF-7; assay type: cell-based; conditions: for IC50: Homo sapiens, MCF7, MTT assay, 48 h of treatment, mean ± SEM
Excerpt: as §1, §2

[4] = test system: BT474 cells (human breast ductal carcinoma); assay: MTT cytotoxicity assay, BT474; assay type: cell-based; conditions: BT-474, 48 h of treatment, mean ± SEM
Excerpt: as §1, §2

[5] = test system: Human primary dermal fibroblasts (HPDF); assay: MTT cytotoxicity assay, HPDF; assay type: cell-based; conditions: for IC50: Homo sapiens, Fibroblast, MTT assay, 48 h of treatment, mean ± SEM; for Selectivity against tumor cells and human fibroblasts: in words
Excerpt: as §1
as §2, with “A day after the seeding, triterpenoids or their derivatives dissolved in DMSO were added.” left out, “At 48 h after cell seeding, 10 μL of 5 mg/mL Thiazolyl Blue (Paneko, Russia) solution was added to each well and cells were kept for 3 h at 37 °C in a CO2 incubator.” left out

rat liver mitochondria [6] = assay: Respiration of isolated mitochondria fueled by glutamate and malate; assay type: biochemical
Method: (§3) Mitochondria were obtained from the liver of male Wistar rats (210–250 g) using the differential centrifugation method. The detailed procedure and composition of the isolation media were described earlier. The suspension of isolated mitochondria contained about 60–70 mg of mitochondrial protein per ml (determined by the Bradford method).
(§4) The rate of O2 consumption by mitochondrial samples was estimated using Oxygraph Plus (Hansatech Instruments Ltd., Pentney, King’s Lynn, UK). The reaction medium included 200 mM sucrose, 20 mM KCl, 0.5 mM EGTA, 5 mM KH2PO4, and 10 mM Hepes/KOH, pH 7.4. The following combinations of substrates and reagents were used: 2.5 mM potassium glutamate + 2.5 mM potassium malate and 5 mM potassium succinate + 1 µM rotenone. Under these conditions, it is possible to assess the oxygen-consuming capacity of mitochondria through complexes I and II of the electron transport chain. To determine the rates of the phosphorylating respiration (State 3) and uncoupled respiration (State 3UDNP) of the mitochondria, 200 µM ADP and 50 µM 2,4-dinitrophenol (DNP) were added sequentially. The concentration of mitochondrial protein was 1 mg/mL.

rat liver mitochondria [7] = assay: Respiration of isolated mitochondria fueled by succinate; assay type: biochemical
Method: as §3, §4

rat liver mitochondria [8] = assay: Mitochondrial membrane potential (TPP-sensitive electrode); assay type: biochemical; conditions: glutamate + malate or succinate + rotenone, Figure 5
Method: as §3
The mitochondrial membrane potential (Δψ) was measured using a penetrating tetraphenylphosphonium bromide (TPP) cation and a TPP-sensitive electrode (Nico-Analyte Ltd., Moscow, Russia) as described previously. The concentration of mitochondrial protein was 1 mg/mL.

BT474 cells = assay: Oxidative stress assay (Muse Oxidative Stress Kit), BT474; assay type: cell-based, human; conditions: BT474, 3 μM
Method: Oxidative stress was assessed after cell culture and incubation (as described above). For this, cells were harvested by trypsinization, washed with ice-cold PBS buffer (pH 7.4), and centrifuged (1000 rpm, 5 min). The resulting cells were resuspended in PBS. Cell population analysis for oxidative stress was performed on a Muse cell analyzer (Merck Millipore, Burlington, MA, USA) using the Muse Oxidative Stress Kit (MCH100111) according to the manufacturer’s protocol.

[9] = Homo sapiens, NCI-H1299, 48 h of treatment

SMILES	IC50 [1, 9]	IC50 ([2]; Homo sapiens, A549, 48 h)	IC50 [2]	IC50 [3]	IC50 [4]	IC50 [5]	Selectivity against tumor cells and human fibroblasts [5]	ADP/O (rat liver mitochondria [6]; 20 μM)	RC (state 3/state 4) (rat liver mitochondria [6]; 20 μM)	State 2 respiration (rat liver mitochondria [6]; 20 μM)	State 3UDNP respiration (rat liver mitochondria [6]; 20 μM)	State 3 respiration (rat liver mitochondria [6]; 20 μM)	State 4 respiration (rat liver mitochondria [6]; 20 μM)	ADP/O (rat liver mitochondria [7]; 20 μM)	RC (state 3/state 4) (rat liver mitochondria [7]; 20 μM)	State 2 respiration (rat liver mitochondria [7]; 20 μM)	State 3UDNP respiration (rat liver mitochondria [7]; 20 μM)	State 3 respiration (rat liver mitochondria [7]; 20 μM)	State 4 respiration (rat liver mitochondria [7]; 20 μM)	also measured
CC1CCC2(C(=O)OCCCC[n+]3ccc(C=Cc4c[nH]c5ccccc45)cc3)CCC3(C)C(=CCC4C5(C)CC(O)C(O)C(C)(C)C5CCC43C)C2C1C (stereo not drawn) (as salt: bromide) [CA-F16, N-{4-[(2α,3β-dihydroxy-urs-12-en-28-oyl)-butyl]-(E)-4-[2-(1H-indol-3-yl)-vinyl]}pyridinium bromide]	–	–	–	–	–	–	–	–	–	–	–	–	–	–	–	–	–	–	–	melting point: 219 to 221 °C
CC1(C)CCC2(C(=O)OCCCC[n+]3ccc(C=Cc4c[nH]c5ccccc45)cc3)CCC3(C)C(=CCC4C5(C)CC(O)C(O)C(C)(C)C5CCC43C)C2C1 (stereo not drawn) (as salt: bromide) [MA-F16, N-{4-[(2α,3β-dihydroxy-olean-12-en-28-oyl)-butyl]-(E)-4-[2-(1H-indol-3-yl)-vinyl]}pyridinium bromide]	–	–	–	–	–	–	–	–	–	–	–	–	–	–	–	–	–	–	–	melting point: 206 to 208 °C
CC1CCC2(C(=O)OCCCC[n+]3ccc(C=Cc4c[nH]c5ccccc45)cc3)CCC3(C)C(=CCC4C5(C)CC(O)C(O)C(C)(C)C5CCC43C)C2C1C (stereo not drawn) [CA-F16, N-{4-[(2α,3β-dihydroxy-urs-12-en-28-oyl)-butyl]-(E)-4-[2-(1H-indol-3-yl)-vinyl]}pyridinium bromide]	4.01 ± 1.69 µM	1.9 µM	1.87 ± 0.14 µM	1.89 ± 0.27 µM	6.7 ± 0.35 µM	1.15 ± 0.38 µM	–	–	–	–	–	–	–	–	–	–	–	–	–	Cytotoxicity higher than that of ursolic acid ([2]; A549 line, ratio of IC50 values): 36 times
CC1(C)CCC2(C(=O)OCCCC[n+]3ccc(C=Cc4c[nH]c5ccccc45)cc3)CCC3(C)C(=CCC4C5(C)CC(O)C(O)C(C)(C)C5CCC43C)C2C1 (stereo not drawn) [MA-F16, N-{4-[(2α,3β-dihydroxy-olean-12-en-28-oyl)-butyl]-(E)-4-[2-(1H-indol-3-yl)-vinyl]}pyridinium bromide]	10.5 ± 2.44 µM	13.5 ± 2.02 µM	–	7.44 ± 0.78 µM	11.1 ± 2.51 µM	9.3 ± 2.56 µM	–	–	–	–	–	–	–	–	–	–	–	–	–	–
CC1(C)CC[C@]2(C(=O)O)CC[C@]3(C)C(=CC[C@@H]4[C@@]5(C)CC[C@H](O)C(C)(C)[C@@H]5CC[C@]43C)[C@@H]2C1 [OA, oleanolic acid, reference compound]	–	236 µM	234 ± 22.1 µM	114 ± 12.6 µM	150 ± 25.1 µM	156 ± 10.4 µM	have not shown selectivity	2.53 ± 0.12 rel. un.	2.11 ± 0.12 rel. un.	8.39 ± 0.09 nmol O2/min/mg Protein	35.74 ± 0.66 nmol O2/min/mg Protein	27.31 ± 0.31 nmol O2/min/mg Protein	13.23 ± 0.18 nmol O2/min/mg Protein	1.45 ± 0.05 rel. un.	2.80 ± 0.09 rel. un.	15.06 ± 0.15 nmol O2/min/mg Protein	69.92 ± 0.68 nmol O2/min/mg Protein	48.00 ± 0.60 nmol O2/min/mg Protein	17.18 ± 0.78 nmol O2/min/mg Protein	IC50 ([1]; 48 h of treatment): 139 ± 6.85 µM; IC50 ([1]; Homo sapiens, NCI-H1299, 48 h, 48 h of treatment): 139 µM; Effect on membrane potential of organelles (rat liver mitochondria [8]): slightly reduce the membrane potential
C[C@H]1[C@H](C)CC[C@]2(C(=O)O)CC[C@]3(C)C(=CC[C@@H]4[C@@]5(C)CC[C@H](O)C(C)(C)[C@@H]5CC[C@]43C)[C@H]12 [UA, ursolic acid, reference compound]	97.6 ± 5.63 µM	68.9 µM	68.9 ± 19.6 µM	40.6 ± 12.5 µM	110 ± 19.1 µM	59.1 ± 7.73 µM	have not shown selectivity	2.82 ± 0.03 rel. un.	2.13 ± 0.09 rel. un.	8.01 ± 0.15 nmol O2/min/mg Protein	36.66 ± 1.47 nmol O2/min/mg Protein	26.92 ± 0.64 nmol O2/min/mg Protein	12.65 ± 0.32 nmol O2/min/mg Protein	1.43 ± 0.04 rel. un.	3.32 ± 0.12 rel. un.	15.19 ± 0.27 nmol O2/min/mg Protein	75.91 ± 1.74 nmol O2/min/mg Protein	49.15 ± 0.30 nmol O2/min/mg Protein	15.54 ± 0.62 nmol O2/min/mg Protein	Effect on membrane potential of organelles (rat liver mitochondria [8]): did not show such an ability
CC1CCC2(C(=O)OCCCC[n+]3ccc(C=Cc4c[nH]c5ccccc45)cc3)CCC3(C)C(=CCC4C5(C)CCC(O)C(C)(C)C5CCC43C)C2C1C (stereo not shown) [UA-F16]	2.8 ± 0.25 µM	2.4 ± 0.3 µM	–	1.36 ± 0.74 µM	5.18 ± 0.15 µM	4.98 ± 0.9 µM	highest selectivity	0.74 ± 0.14 rel. un.	1.02 ± 0.02 rel. un.	14.75 ± 0.21 nmol O2/min/mg Protein	28.29 ± 1.18 nmol O2/min/mg Protein	19.35 ± 0.90 nmol O2/min/mg Protein	19.06 ± 1.11 nmol O2/min/mg Protein	0.86 ± 0.05 *#^γ rel. un.	1.37 ± 0.11 rel. un.	15.86 ± 0.40 nmol O2/min/mg Protein	64.18 ± 3.81 nmol O2/min/mg Protein	43.98 ± 1.31 nmol O2/min/mg Protein	32.20 ± 1.68 nmol O2/min/mg Protein	Chou–Talalay combination index (CI) ([3]; MCF7 cells, based on IC50 values for parent acid, F16 [23] and conjugate, CI < 1 synergism): 0.05; Selectivity index (SI) ([5]; between tumor cells H1299, A549 and MCF-7 and fibroblasts): 1.8–3.7; Effect on level of ROS-positive cells (BT474 cells): significantly increase the level of ROS-positive cells; ADP/O (rat liver mitochondria [6]; 10 μM): 2.65 ± 0.05 rel. un.; RC (state 3/state 4) (rat liver mitochondria [6]; 10 μM): 2.20 ± 0.04 rel. un.; State 2 respiration (rat liver mitochondria [6]; 10 μM): 7.70 ± 0.33 nmol O2/min/mg Protein; State 3UDNP respiration (rat liver mitochondria [6]; 10 μM): 35.23 ± 0.89 nmol O2/min/mg Protein; State 3 respiration (rat liver mitochondria [6]; 10 μM): 25.89 ± 0.86 nmol O2/min/mg Protein; State 4 respiration (rat liver mitochondria [6]; 10 μM): 11.78 ± 0.22 nmol O2/min/mg Protein; ADP/O (rat liver mitochondria [7]; 10 μM): 1.28 ± 0.04 rel. un.; RC (state 3/state 4) (rat liver mitochondria [7]; 10 μM): 2.65 ± 0.07 rel. un.; State 2 respiration (rat liver mitochondria [7]; 10 μM): 14.42 ± 0.24 nmol O2/min/mg Protein; State 3UDNP respiration (rat liver mitochondria [7]; 10 μM): 67.34 ± 2.12 nmol O2/min/mg Protein; State 3 respiration (rat liver mitochondria [7]; 10 μM): 46.39 ± 0.30 nmol O2/min/mg Protein; State 4 respiration (rat liver mitochondria [7]; 10 μM): 17.51 ± 0.23 nmol O2/min/mg Protein
